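Growth conditions: 96-well plates. Treatment: test compound, 48 hours, 5 concentrations. Analysis: linear interpolation between bracketing concentrations; unreached endpoints set to highest concentration. The concentration for 50% growth inhibition is given as GI50. TGI: total growth inhibition.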
Assays:
Test in all cases: NCI tumour cell line growth inhibition, 48 h
M14 melanoma = test system: M14 melanoma
SK-OV-3 ovarian = test system: SK-OV-3 ovarian
CAKI-1 renal = test system: CAKI-1 renal
KM12 colon = test system: KM12 colon
HT29 colon = test system: HT29 colon
HOP-62 NSCLC = test system: HOP-62 NSCLC
HS 578T breast = test system: HS 578T breast
HCT-116 colon = test system: HCT-116 colon
786-0 renal = test system: 786-0 renal
SR leukemia = test system: SR leukemia
PC-3 prostate = test system: PC-3 prostate
SK-MEL-28 melanoma = test system: SK-MEL-28 melanoma
MALME-3M melanoma = test system: MALME-3M melanoma
U251 CNS = test system: U251 CNS
SF-539 CNS = test system: SF-539 CNS
MDA-MB-231 breast = test system: MDA-MB-231 breast
TK-10 renal = test system: TK-10 renal
A498 renal = test system: A498 renal
IGROV1 ovarian = test system: IGROV1 ovarian
SK-MEL-5 melanoma = test system: SK-MEL-5 melanoma
NCI-H23 lung = test system: NCI-H23 lung
COLO 205 colon = test system: COLO 205 colon
BT-549 breast = test system: BT-549 breast
UO-31 renal = test system: UO-31 renal
HL-60(TB) leukemia = test system: HL-60(TB) leukemia
SNB-75 CNS = test system: SNB-75 CNS
ACHN renal = test system: ACHN renal
K-562 leukemia = test system: K-562 leukemia

For `COc1cc(SC)ccc1C(=O)N1CCCC(C)C1` (stereo unspecified), the GI50 (M14 melanoma) was > 100 µM, the TGI (M14 melanoma) was > 100 µM and the GI50 (SK-OV-3 ovarian) was > 100 µM. For the same molecule, the TGI (SK-OV-3 ovarian) was > 100 µM, the GI50 (CAKI-1 renal) was > 100 µM and the TGI (CAKI-1 renal) was > 100 µM. For the same molecule, the GI50 (KM12 colon) was > 100 µM, the TGI (KM12 colon) was > 100 µM and the GI50 (HT29 colon) was > 100 µM. For the same molecule, the TGI (HT29 colon) was > 100 µM, the GI50 (HOP-62 NSCLC) was > 100 µM and the TGI (HOP-62 NSCLC) was > 100 µM. The GI50 (HS 578T breast) was > 100 µM, the TGI (HS 578T breast) was > 100 µM and the GI50 (HCT-116 colon) was > 100 µM. For the same molecule, the TGI (HCT-116 colon) was > 100 µM, the GI50 (786-0 renal) was > 100 µM and the TGI (786-0 renal) was > 100 µM. For the same molecule, the GI50 (SR leukemia) was > 100 µM, the TGI (SR leukemia) was > 100 µM and the GI50 (PC-3 prostate) was > 100 µM. For the same molecule, the TGI (PC-3 prostate) was > 100 µM, the GI50 (SK-MEL-28 melanoma) was > 100 µM and the TGI (SK-MEL-28 melanoma) was > 100 µM. For the same molecule, the GI50 (MALME-3M melanoma) was > 100 µM, the TGI (MALME-3M melanoma) was > 100 µM and the GI50 (U251 CNS) was > 100 µM. For the same molecule, the TGI (U251 CNS) was > 100 µM, the GI50 (SF-539 CNS) was > 100 µM and the TGI (SF-539 CNS) was > 100 µM. The GI50 (MDA-MB-231 breast) was > 100 µM, the TGI (MDA-MB-231 breast) was > 100 µM and the GI50 (TK-10 renal) was > 100 µM. The TGI (TK-10 renal) was > 100 µM, the GI50 (A498 renal) was 34.4 µM and the TGI (A498 renal) was > 100 µM. For the same molecule, the GI50 (IGROV1 ovarian) was > 100 µM, the TGI (IGROV1 ovarian) was > 100 µM and the GI50 (SK-MEL-5 melanoma) was 33.3 µM. For the same molecule, the TGI (SK-MEL-5 melanoma) was > 100 µM, the GI50 (NCI-H23 lung) was 70 µM and the TGI (NCI-H23 lung) was > 100 µM. For the same molecule, the GI50 (COLO 205 colon) was > 100 µM, the TGI (COLO 205 colon) was > 100 µM and the GI50 (BT-549 breast) was > 100 µM. For the same molecule, the TGI (BT-549 breast) was > 100 µM, the GI50 (UO-31 renal) was > 100 µM and the TGI (UO-31 renal) was > 100 µM. For the same molecule, the GI50 (HL-60(TB) leukemia) was 75.2 µM, the TGI (HL-60(TB) leukemia) was > 100 µM and the GI50 (SNB-75 CNS) was > 100 µM. The TGI (SNB-75 CNS) was > 100 µM, the GI50 (ACHN renal) was > 100 µM and the TGI (ACHN renal) was > 100 µM. The GI50 (K-562 leukemia) was 58.7 µM and the TGI (K-562 leukemia) was > 100 µM.
